Several values for one entry are separate records, joined by “and”; a condition that tells them apart may be missing. Equal values may be shown once. Read-outs that look alike come from different tables or passages of the source.
How the values were obtained:
Format in all cases: cell-based
LSF = target: T1, LSF (Homo sapiens, UniProt Q12800); assay: LSF-dependent luciferase reporter assay in NIH 3T3 cells; parameters: expressed in transfected cells; host or cells: NIH 3T3
T1 sequence (Q12800 1-502): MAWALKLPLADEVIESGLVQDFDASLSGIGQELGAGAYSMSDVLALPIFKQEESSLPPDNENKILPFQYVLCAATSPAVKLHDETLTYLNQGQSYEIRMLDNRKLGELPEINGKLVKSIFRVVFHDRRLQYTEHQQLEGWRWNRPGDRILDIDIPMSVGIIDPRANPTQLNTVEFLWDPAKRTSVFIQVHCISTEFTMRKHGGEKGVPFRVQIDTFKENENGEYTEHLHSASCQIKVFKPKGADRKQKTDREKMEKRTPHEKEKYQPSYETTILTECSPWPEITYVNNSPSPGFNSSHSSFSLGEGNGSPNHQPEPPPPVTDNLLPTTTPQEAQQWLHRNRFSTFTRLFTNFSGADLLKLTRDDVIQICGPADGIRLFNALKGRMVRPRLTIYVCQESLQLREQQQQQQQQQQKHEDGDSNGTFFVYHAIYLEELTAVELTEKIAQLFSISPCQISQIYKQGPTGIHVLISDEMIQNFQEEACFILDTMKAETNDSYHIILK
Experimental: NIH 3T3 cells were transfected with the expression construct pEF1α-LSF, a LSF expression vector^6,20; the reporter construct pGL3B-WT4E1b, a firefly luciferase reporter vector driven by LSF^12; phRL-TK, a control renilla luciferase reporter vector; and pEFGP, essentially as previously described^12. Five hours after transfection, either vehicle (DMSO) or FQI compound was added, keeping DMSO at 0.5%. Cell extracts were harvested 36 hours post-transfection and firefly and renilla luciferase activities measured via a dual luciferase assay (Promega). Five μl of extract was mixed with 30 μl of luciferase assay reagent (Promega), and luminescence measured for 10 seconds using a 20/20n luminometer (Turner Biosystems). Subsequently, 30 μl of Stop & Glo reagent (Promega) was added, and luminescence also measured for 10 seconds. LSF transactivation activity is given as relative luciferase activity, the ratio of firefly to renilla activities.
NIH-3T3 cells were cultured at 37° C. in 5% CO2 in DMEM (Dulbecco's modification of Eagle's Medium; Corning) supplemented with 10% FCS (FCS; Atlanta Biologicals). Approximately 24 hours prior to transfection, 200,000 cells were plated in 35 mm dishes. After 24 hours, cells were ˜70% confluent, and were transfected for 5 hours with pEF1α-LSF, the reporter construct pGL3B-WT4E1b, phRLTK, and pEFGP (Grant, T. J. et al. Antiproliferative small-molecule inhibitors of transcription factor LSF reveal oncogene addiction to LSF in hepatocellular carcinoma. PNAS (2012), 109, 1-6). Vehicle (DMSO) or FQI-34 was then added, keeping the DMSO at 0.5%. Cell extracts were harvested 36 h post-transfection, and firefly and renilla luciferase activities were measured via a dual luciferase assay (Promega Dual-Luciferase Reporter Assay System). Relative luciferase activity represents firefly luciferase activity normalized to that of renilla luciferase in each extract. IC50 values were determined from plots of normalized luciferase activity vs. compound concentration (Prism GraphPad; non-linear regression 4-parameter curve fit with variable slope).

A549 cells = assay: Cell proliferation assay (MTS), A549; details: for GI50: MTS
Experimental: (§1) Cells were plated at 3×10^4 cells/mL, A549 and HeLa, and 1×10^4 cells/mL, NIH/3T3, in 96-well plates and incubated for 24 h to allow for cell adhesion. LSF-library compounds were dissolved in DMSO, serial diluted in appropriate medium and added to cells in triplicate (2 plates). DMSO was added to control wells at a final concentration of 1%. After 72 h incubation in the presence of compound, confluent cells were assayed for growth proliferation with CellTiter 96® AQueous One Solution Cell Proliferation Assay (MTS) (Promega) according to the manufacturer's protocol. Plates were read at 490 nm on a microplate reader, and IC50 values were determined as the percentage of compound-treated cell growth to control cell growth. HCC cells—one hour after plating HCC cells onto 96-well plates, compound or vehicle (DMSO) was added to the desired concentrations, keeping DMSO at 0.5%. At indicated time points, cell viability was assayed using the CellTiter 96® Non-Radioactive Cell Proliferation Assay (MTT) (Promega).
(§2) QGY-7703 and A549 cells were cultured at 37° C. in 5% CO2 in DMEM (Dulbecco's modification of Eagle's Medium; Corning) supplemented with 10% Fetal Bovine Serum (FBS; Invitrogen). NIH-3T3 cells were cultured at 37° C. in 5% CO2 in DMEM supplemented with 10% Fetal Calf Serum (FCS; Atlanta Biologicals). For cell viability assays, 1,500 cells were seeded in 96-well plates and treated with FQI-34 or vehicle (DMSO) at appropriate concentrations (DMSO at 1%) after 20 hours. After 72-hour incubation with compound or vehicle, cell growth was assessed via the Promega CellTiter 96® AQueous One Solution Cell Proliferation Assay, a colorimetric method to determine the number of viable cells. 20 μL of the CellTiter 96® AQueous One Solution Reagent was added directly into cultured wells and incubated for one hour, after which the absorbance at 490 nm was read with a 96-well plate reader (Opys MR Microplate Reader). The CellTiter 96® AQueous One Solution contains an MTS tetrazolium compound which is bioreduced by cells into a colored formazan product that is soluble in tissue culture medium. The quantity of formazan product as measured by absorbance is directly proportional to the number of living cells in culture. GI50 values were determined from plots of the percentage of compound-treated cell growth to vehicle cell growth vs. compound concentration (GraphPad Prism; non-linear regression 4-parameter curve fit with variable slope).

HeLa cells = assay: Cell proliferation assay (MTS), HeLa; details: Homo sapiens
Experimental: as §1

HepG3 cells = assay: TUNEL apoptosis assay, HepG3; details: same conditions as QGY-7703
Experimental: HCC cells were plated 24 h prior to incubation with FQI1. At the indicated time points, cells were analyzed using the FragEL™ DNA fragmentation kit (Calbiochem) according to the manufacturer's protocol. Flow cytometry was performed using a FACS caliber (Becton Dickinson) and analyzed with Cell Quest software.

QGY-7703 HCC cells = assay: HCC cell viability (MTT), QGY-7703
Experimental: as §1

NIH/3T3 cells = assay: Cell proliferation assay (MTS), NIH/3T3; details: Mus musculus, NIH3T3
Experimental: as §1, §2

CCOc1ccccc1C1CC(=O)Nc2cc3c(cc21)OCO3 (racemic) [FQI1, 8-(2-ethoxyphenyl)-7,8-dihydro-[1,3]dioxolo[4,5-g]quinolin-6(5H)-one] was tested, and the IC50 (LSF; NIH 3T3 cells, dual luciferase, ranges where few concentrations tested, read-out: IC50 (μM) LSF-dependent reporter assat NIH 3T3) was ~2.4 µM and 2.4 µM, the GI50 (A549 cells; Homo sapiens, 72 h, read-out: GI50 (μM) A549) was 6.3 µM and the IC50 (A549 cells; Homo sapiens, Example 7, FIG. 8, read-out: growth inhibition of A549 Cell Line IC50) was 6.3 ± 1.1 µM. The IC50 (HeLa cells; HeLa, Example 7, FIG. 8, read-out: growth inhibition of HeLa Cell Line IC50) was 0.79 ± 0.035 µM, the GI50 (HeLa cells; 72 h, MTS) was 0.79 µM and the “TUNEL positivity of HepG3 cells” value (HepG3 cells) was “not TUNEL-positive”. The “effect of exogenous thymidine on treated cell viability profiles” value (QGY-7703 HCC cells; QGY-7703, 20 μM thymidine) was “not affected”, the “concentration at which decrease in HCC cell viability was observable” value (QGY-7703 HCC cells; QGY-7703, between 24 and 48 hours) was 2 µM and the “cellular proliferation of QGY-7703 cells (MTT)” value (QGY-7703 HCC cells; in words) was “decreased overall cellular proliferation”. For the same compound, the GI50 (NIH/3T3 cells; 72 h, MTS, read-out: GI50 (μM) NIH/3T3) was 3 µM, the IC50 (NIH/3T3 cells; Example 7, FIG. 8, read-out: growth inhibition of NIH/3T3 Cell Line IC50) was 3 ± 0.85 µM and the GI50 (NIH/3T3 cells; Table 3, read-out: GI50 (μM) NIH 3T3) was 3 ± 0.9 µM.

With CCOc1cc(N(C)C)ccc1C1CC(=O)Nc2cc3c(cc21)OCO3 (centres unmarked) [FQI-34, 8-(4-(dimethylamino)-2-ethoxyphenyl)-7,8-dihydro-[1,3]dioxolo[4,5-g]quinolin-6(5H)-one] the IC50 (LSF; Table 5, read-out: LSF-reporter assay IC50) was 0.726 µM, the IC50 (LSF; Table 8, read-out: LSF-reporter assay IC50) was 0.726 µM and the IC50 (LSF; dual-luciferase reporter, NIH-3T3, FIG. 12, read-out: LSF-Target affinity IC50) was 0.59 µM. It also gave a GI50 (A549 cells; Homo sapiens, 1,500 cells seeded, 72-hour incubation, read-out: GI50 in A549 cells) of 1.8 µM and a GI50 (NIH/3T3 cells; 1,500 cells seeded, 72-hour incubation, MTS, read-out: GI50 in NIH-3T3 cells) of 1.49 µM.
